Data reported in the NIST ThermoML archive (doi:10.1021/acs.jced.8b00547).
± gives the expanded uncertainty stated by the source.

Columns and labels:
[1] = xn = mol fraction of the nth substance listed; conditions: 101 kPa, Liquid; for speed of sound: Single path-length method; for mass density: Vibrating tube method
[2] = refractive index (Na D-line) (dimensionless); xn = mol fraction of the nth substance listed; conditions: 101 kPa, Liquid, Standard Abbe refractometry

CCCC(C)=O [pentan-2-one] + CCC(C)O
Conditions | mass density, [1] [kg/m3] | refractive index, [2] | speed of sound, [1] [m/s]
298.15 K, x1 = 0.1227 | 801.36 ± 0.42 | 1.39423 ± 0.00049 | 1212.6 ± 1.4
298.15 K, x1 = 0.2361 | 800.45 ± 0.42 | 1.39353 ± 0.00049 | 1213.1 ± 1.4
298.15 K, x1 = 0.3467 | 800.01 ± 0.41 | 1.3928 ± 0.0005 | 1213.5 ± 1.4
298.15 K, x1 = 0.4522 | 799.88 ± 0.41 | 1.39205 ± 0.0005 | 1214 ± 1.4
298.15 K, x1 = 0.5521 | 799.79 ± 0.41 | 1.39133 ± 0.0005 | 1214.3 ± 1.4
298.15 K, x1 = 0.6518 | 799.88 ± 0.41 | 1.39059 ± 0.0005 | 1214.7 ± 1.4
298.15 K, x1 = 0.744 | 800.22 ± 0.42 | 1.38988 ± 0.0005 | 1215.1 ± 1.4
298.15 K, x1 = 0.8299 | 800.65 ± 0.42 | 1.38922 ± 0.0005 | 1215.4 ± 1.4
298.15 K, x1 = 0.919 | 801.23 ± 0.42 | 1.38853 ± 0.0005 | 1215.7 ± 1.4
298.15 K, x1 = 1 | 802.09 ± 0.41 | 1.38782 ± 0.00049 | 1216 ± 1.4
308.15 K, x1 = 0.1227 | 792.32 ± 0.43 | 1.38958 ± 0.00049 | 1175.7 ± 1.4
308.15 K, x1 = 0.2361 | 791.24 ± 0.42 | 1.38887 ± 0.00049 | 1175.5 ± 1.4
308.15 K, x1 = 0.3467 | 790.78 ± 0.42 | 1.38809 ± 0.0005 | 1175.4 ± 1.4
308.15 K, x1 = 0.4522 | 790.51 ± 0.41 | 1.38731 ± 0.0005 | 1175.3 ± 1.4
308.15 K, x1 = 0.5521 | 790.25 ± 0.41 | 1.38655 ± 0.0005 | 1175.2 ± 1.4
308.15 K, x1 = 0.6518 | 790.23 ± 0.41 | 1.38577 ± 0.0005 | 1175 ± 1.4
308.15 K, x1 = 0.744 | 790.31 ± 0.41 | 1.38503 ± 0.0005 | 1174.9 ± 1.4
308.15 K, x1 = 0.8299 | 790.62 ± 0.42 | 1.38434 ± 0.0005 | 1174.7 ± 1.4
308.15 K, x1 = 0.919 | 791.25 ± 0.43 | 1.38358 ± 0.0005 | 1174.6 ± 1.4
308.15 K, x1 = 1 | 792.32 ± 0.41 | 1.38284 ± 0.00049 | 1174.4 ± 1.4
318.15 K, x1 = 0.1227 | 783.39 ± 0.44 | 1.38489 ± 0.00049 | 1138.5 ± 1.4
318.15 K, x1 = 0.2361 | 782.07 ± 0.42 | 1.38415 ± 0.0005 | 1137.9 ± 1.4
318.15 K, x1 = 0.3467 | 781.42 ± 0.42 | 1.38335 ± 0.0005 | 1137.2 ± 1.4
318.15 K, x1 = 0.4522 | 780.93 ± 0.42 | 1.38254 ± 0.0005 | 1136.6 ± 1.4
318.15 K, x1 = 0.5521 | 780.55 ± 0.42 | 1.38177 ± 0.0005 | 1136.1 ± 1.4
318.15 K, x1 = 0.6518 | 780.41 ± 0.41 | 1.38095 ± 0.0005 | 1135.5 ± 1.4
318.15 K, x1 = 0.744 | 780.42 ± 0.42 | 1.38018 ± 0.0005 | 1134.9 ± 1.4
318.15 K, x1 = 0.8299 | 780.73 ± 0.42 | 1.37943 ± 0.0005 | 1134.4 ± 1.4
318.15 K, x1 = 0.919 | 781.32 ± 0.43 | 1.3786 ± 0.0005 | 1133.8 ± 1.4
318.15 K, x1 = 1 | 782.44 ± 0.41 | 1.37782 ± 0.00049 | 1133.3 ± 1.4
328.15 K, x1 = 0.1227 | 773.65 ± 0.44 | 1.37968 ± 0.00049 | 1101 ± 1.4
328.15 K, x1 = 0.2361 | 772.15 ± 0.43 | 1.37897 ± 0.00049 | 1100.1 ± 1.4
328.15 K, x1 = 0.3467 | 771.4 ± 0.42 | 1.37819 ± 0.0005 | 1099.2 ± 1.4
328.15 K, x1 = 0.4522 | 770.91 ± 0.42 | 1.3774 ± 0.0005 | 1098.3 ± 1.4
328.15 K, x1 = 0.5521 | 770.35 ± 0.42 | 1.37666 ± 0.0005 | 1097.5 ± 1.4
328.15 K, x1 = 0.6518 | 770.02 ± 0.42 | 1.37589 ± 0.0005 | 1096.6 ± 1.4
328.15 K, x1 = 0.744 | 770.12 ± 0.42 | 1.37513 ± 0.0005 | 1095.8 ± 1.4
328.15 K, x1 = 0.8299 | 770.56 ± 0.42 | 1.37437 ± 0.0005 | 1095.1 ± 1.4
328.15 K, x1 = 0.919 | 771.22 ± 0.43 | 1.37356 ± 0.0005 | 1094.3 ± 1.4
328.15 K, x1 = 1 | 772.43 ± 0.42 | 1.3728 ± 0.00049 | 1093.6 ± 1.4
338.15 K, x1 = 0.1227 | 763.26 ± 0.45 | 1.37559 ± 0.00049 | 1063 ± 1.4
338.15 K, x1 = 0.2361 | 761.48 ± 0.43 | 1.37472 ± 0.0005 | 1061.8 ± 1.4
338.15 K, x1 = 0.3467 | 760.59 ± 0.42 | 1.37383 ± 0.0005 | 1060.7 ± 1.4
338.15 K, x1 = 0.4522 | 760.08 ± 0.42 | 1.37293 ± 0.0005 | 1059.6 ± 1.4
338.15 K, x1 = 0.5521 | 759.46 ± 0.42 | 1.37206 ± 0.0005 | 1058.6 ± 1.4
338.15 K, x1 = 0.6518 | 759.14 ± 0.42 | 1.37116 ± 0.0005 | 1057.6 ± 1.4
338.15 K, x1 = 0.744 | 759.29 ± 0.42 | 1.37027 ± 0.0005 | 1056.6 ± 1.4
338.15 K, x1 = 0.8299 | 759.87 ± 0.42 | 1.36944 ± 0.0005 | 1055.7 ± 1.4
338.15 K, x1 = 0.919 | 760.73 ± 0.44 | 1.36852 ± 0.0005 | 1054.8 ± 1.4
338.15 K, x1 = 1 | 762.27 ± 0.42 | 1.36764 ± 0.00049 | 1053.8 ± 1.4
